What was measured:
Test in all cases: In vitro MIC, two-fold dilution in microtiter
Type in all cases: cell-based
[1] = tested on: Streptococcus pneumoniae UC 41; conditions: 18-24 h at 37° C., inoculum about 10^4 CFU/ml
Protocol: (§1) Broth cultures are diluted enough so that the final inecuium is about 10^4 colony forming units/ml (CFU/ml).

[2] = tested on: Staphylococcus haemolyticus L 602; conditions: 18-24 h at 37° C., inoculum about 10^4 CFU/ml
Protocol: as §1

[3] = tested on: Streptococcus faecalis ATCC 7080; conditions: 18-24 h at 37° C., inoculum about 10^4 CFU/ml
Protocol: as §1

[4] = tested on: Pseudomonas aeruginosa ATCC 10145; conditions: for MIC Pseudomonas aeruginosa ATCC 10145: 18-24 h at 37° C., inoculum about 10^4 CFU/ml
Protocol: as §1

[5] = tested on: Staphylococcus epidermidis ATCC 12228; conditions: 18-24 h at 37° C., inoculum about 10^4 CFU/ml
Protocol: as §1

[6] = tested on: Escherichia coli SKF 12140; conditions: 18-24 h at 37° C., inoculum about 10^4 CFU/ml
Protocol: as §1

[7] = tested on: Proteus vulgaris X19H ATCC 881; conditions: 18-24 h at 37° C., inoculum about 10^4 CFU/ml
Protocol: as §1

[8] = tested on: Streptococcus pyogenes C 203; conditions: 18-24 h at 37° C., inoculum about 10^4 CFU/ml
Protocol: as §1

[9] = tested on: Staphylococcus aureus TOUR; conditions: 18-24 h at 37° C., inoculum about 10^4 CFU/ml
Protocol: as §1

CC(=O)N[C@H]1[C@H](OC2c3ccc(c(Cl)c3)Oc3cc4cc(c3O)Oc3ccc(cc3Cl)CC3NC(=O)C(N)c5ccc(O)c(c5)Oc5cc(O)cc(c5)C(NC3=O)C(=O)NC4C(=O)NC3C(=O)NC2C(=O)NC(C(=O)NCCCNCCCCNCCCN)c2cc(O)cc(O)c2-c2cc3ccc2O)O[C@H](CO)[C@@H](O)[C@@H]1O (stereo partly shown) [Compound 44]
MIC Streptococcus pneumoniae UC 41 [1]: 0.25 microgram/ml | MIC Staphylococcus haemolyticus L 602 [2]: 0.06 microgram/ml | MIC Streptococcus faecalis ATCC 7080 [3]: 0.25 microgram/ml | MIC Pseudomonas aeruginosa ATCC 10145 [4]: 16 microgram/ml | MIC Staphylococcus epidermidis ATCC 12228 [5]: 0.06 microgram/ml | MIC Escherichia coli SKF 12140 [6]: 4 microgram/ml | MIC Proteus vulgaris X19H ATCC 881 [7]: 128 microgram/ml | MIC Streptococcus pyogenes C 203 [8]: 0.06 microgram/ml | MIC Staphylococcus aureus TOUR [9]: 0.12 microgram/ml

NCCNCCNC(=O)C1NC(=O)C2NC(=O)C(NC(=O)C3NC(=O)C4NC(=O)C(Cc5ccc(c(Cl)c5)Oc5cc3cc(c5O)Oc3ccc(cc3Cl)C2O)NC(=O)C(N)c2ccc(O)c(c2)Oc2cc(O)cc4c2)c2ccc(O)c(c2)-c2c(O)cc(O)cc21 (stereo not shown) [Compound 21]
MIC Streptococcus pneumoniae UC 41 [1]: 0.12 microgram/ml | MIC Staphylococcus haemolyticus L 602 [2]: 0.12 microgram/ml | MIC Streptococcus faecalis ATCC 7080 [3]: 0.12 microgram/ml | MIC Pseudomonas aeruginosa ATCC 10145 [4]: 64 microgram/ml | MIC Staphylococcus epidermidis ATCC 12228 [5]: 0.06 microgram/ml | MIC Escherichia coli SKF 12140 [6]: 8 microgram/ml | MIC Proteus vulgaris X19H ATCC 881 [7]: 64 microgram/ml | MIC Streptococcus pyogenes C 203 [8]: 0.12 microgram/ml | MIC Staphylococcus aureus TOUR [9]: 0.06 microgram/ml

teicoplanin [reference compound]
MIC against Pseudomonas aeruginosa (comparison compounds) ([4]; strain not specified ("the same microorganism")): ≥ 32 microgram/ml

CCN(CC)CCN(CCCN)CCCNC(=O)C1NC(=O)C2NC(=O)C(NC(=O)C3NC(=O)C4NC(=O)C(Cc5ccc(c(Cl)c5)Oc5cc3cc(c5O)Oc3ccc(cc3Cl)C2O)NC(=O)C(N)c2ccc(O)c(c2)Oc2cc(O)cc4c2)c2ccc(O)c(c2)-c2c(O)cc(O)cc21 (stereo not shown) [Compound 52]
MIC Streptococcus pneumoniae UC 41 [1]: 0.12 microgram/ml | MIC Staphylococcus haemolyticus L 602 [2]: 0.12 microgram/ml | MIC Streptococcus faecalis ATCC 7080 [3]: 0.12 microgram/ml | MIC Pseudomonas aeruginosa ATCC 10145 [4]: 128 microgram/ml | MIC Staphylococcus epidermidis ATCC 12228 [5]: 0.03 microgram/ml | MIC Escherichia coli SKF 12140 [6]: 32 microgram/ml | MIC Proteus vulgaris X19H ATCC 881 [7]: > 128 microgram/ml | MIC Streptococcus pyogenes C 203 [8]: 0.12 microgram/ml | MIC Staphylococcus aureus TOUR [9]: 0.12 microgram/ml

NCCCNCCCCCCCCCNCCCNC(=O)C1NC(=O)C2NC(=O)C(NC(=O)C3NC(=O)C4NC(=O)C(Cc5ccc(c(Cl)c5)Oc5cc3cc(c5O)Oc3ccc(cc3Cl)C2O)NC(=O)C(N)c2ccc(O)c(c2)Oc2cc(O)cc4c2)c2ccc(O)c(c2)-c2c(O)cc(O)cc21 (stereo not shown) [Compound 54]
MIC Streptococcus pneumoniae UC 41 [1]: 0.12 microgram/ml | MIC Staphylococcus haemolyticus L 602 [2]: 2 microgram/ml | MIC Streptococcus faecalis ATCC 7080 [3]: 2 microgram/ml | MIC Pseudomonas aeruginosa ATCC 10145 [4]: 128 microgram/ml | MIC Staphylococcus epidermidis ATCC 12228 [5]: 0.12 microgram/ml | MIC Escherichia coli SKF 12140 [6]: > 128 microgram/ml | MIC Proteus vulgaris X19H ATCC 881 [7]: > 128 microgram/ml | MIC Streptococcus pyogenes C 203 [8]: 0.03 microgram/ml | MIC Staphylococcus aureus TOUR [9]: 0.5 microgram/ml

CN(C)CCCN(CCCN)CCCNC(=O)C1NC(=O)C2NC(=O)C(NC(=O)C3NC(=O)C4NC(=O)C(Cc5ccc(c(Cl)c5)Oc5cc3cc(c5O)Oc3ccc(cc3Cl)C2O)NC(=O)C(N)c2ccc(O)c(c2)Oc2cc(O)cc4c2)c2ccc(O)c(c2)-c2c(O)cc(O)cc21 (stereo not shown) [Compound 51]
MIC Streptococcus pneumoniae UC 41 [1]: 0.12 microgram/ml | MIC Staphylococcus haemolyticus L 602 [2]: 0.12 microgram/ml | MIC Streptococcus faecalis ATCC 7080 [3]: 0.25 microgram/ml | MIC Pseudomonas aeruginosa ATCC 10145 [4]: 32 microgram/ml | MIC Staphylococcus epidermidis ATCC 12228 [5]: 0.06 microgram/ml | MIC Escherichia coli SKF 12140 [6]: 8 microgram/ml | MIC Proteus vulgaris X19H ATCC 881 [7]: 128 microgram/ml | MIC Streptococcus pyogenes C 203 [8]: 0.06 microgram/ml | MIC Staphylococcus aureus TOUR [9]: 0.12 microgram/ml

CC(=O)N[C@H]1[C@H](OC2c3ccc(c(Cl)c3)Oc3cc4cc(c3O)Oc3ccc(cc3Cl)CC3NC(=O)C(N)c5ccc(O)c(c5)Oc5cc(O)cc(c5)C(NC3=O)C(=O)NC4C(=O)NC3C(=O)NC2C(=O)NC(C(=O)NCCCNCCCCNCCCN)c2cc(O)cc(O[C@H]4O[C@H](CO)[C@@H](O)[C@H](O)[C@@H]4O)c2-c2cc3ccc2O)O[C@H](CO)[C@@H](O)[C@@H]1O (stereo partly shown) [Compound 39]
MIC Streptococcus pneumoniae UC 41 [1]: 0.5 microgram/ml | MIC Staphylococcus haemolyticus L 602 [2]: 0.12 microgram/ml | MIC Streptococcus faecalis ATCC 7080 [3]: 0.5 microgram/ml | MIC Pseudomonas aeruginosa ATCC 10145 [4]: 128 microgram/ml | MIC Staphylococcus epidermidis ATCC 12228 [5]: 0.06 microgram/ml | MIC Escherichia coli SKF 12140 [6]: 32 microgram/ml | MIC Proteus vulgaris X19H ATCC 881 [7]: > 128 microgram/ml | MIC Streptococcus pyogenes C 203 [8]: 0.12 microgram/ml | MIC Staphylococcus aureus TOUR [9]: 0.25 microgram/ml

NCCNCCCNCCNC(=O)C1NC(=O)C2NC(=O)C(NC(=O)C3NC(=O)C4NC(=O)C(Cc5ccc(c(Cl)c5)Oc5cc3cc(c5O)Oc3ccc(cc3Cl)C2O)NC(=O)C(N)c2ccc(O)c(c2)Oc2cc(O)cc4c2)c2ccc(O)c(c2)-c2c(O)cc(O)cc21 (stereo not shown) [Compound 24]
MIC Streptococcus pneumoniae UC 41 [1]: 0.12 microgram/ml | MIC Staphylococcus haemolyticus L 602 [2]: 0.06 microgram/ml | MIC Streptococcus faecalis ATCC 7080 [3]: 0.12 microgram/ml | MIC Pseudomonas aeruginosa ATCC 10145 [4]: 64 microgram/ml | MIC Staphylococcus epidermidis ATCC 12228 [5]: 0.06 microgram/ml | MIC Escherichia coli SKF 12140 [6]: 4 microgram/ml | MIC Proteus vulgaris X19H ATCC 881 [7]: 128 microgram/ml | MIC Streptococcus pyogenes C 203 [8]: 0.06 microgram/ml | MIC Staphylococcus aureus TOUR [9]: 0.06 microgram/ml

CN(C)CCCN1CCN(C(=O)C2NC(=O)C3NC(=O)C(NC(=O)C4NC(=O)C5NC(=O)C(Cc6ccc(c(Cl)c6)Oc6cc4cc(c6O)Oc4ccc(cc4Cl)C3O)NC(=O)C(N)c3ccc(O)c(c3)Oc3cc(O)cc5c3)c3ccc(O)c(c3)-c3c(O)cc(O)cc32)CC1 (stereo not shown) [Compound 53]
MIC Streptococcus pneumoniae UC 41 [1]: 0.12 microgram/ml | MIC Staphylococcus haemolyticus L 602 [2]: 0.06 microgram/ml | MIC Streptococcus faecalis ATCC 7080 [3]: 0.12 microgram/ml | MIC Pseudomonas aeruginosa ATCC 10145 [4]: 32 microgram/ml | MIC Staphylococcus epidermidis ATCC 12228 [5]: 0.06 microgram/ml | MIC Escherichia coli SKF 12140 [6]: 8 microgram/ml | MIC Proteus vulgaris X19H ATCC 881 [7]: 128 microgram/ml | MIC Streptococcus pyogenes C 203 [8]: 0.06 microgram/ml | MIC Staphylococcus aureus TOUR [9]: 0.06 microgram/ml

NCCCN1CCN(CCCNC(=O)C2NC(=O)C3NC(=O)C(NC(=O)C4NC(=O)C5NC(=O)C(Cc6ccc(c(Cl)c6)Oc6cc4cc(c6O)Oc4ccc(cc4Cl)C3O)NC(=O)C(N)c3ccc(O)c(c3)Oc3cc(O)cc5c3)c3ccc(O)c(c3)-c3c(O)cc(O)cc32)CC1 (stereo not shown) [Compound 30]
MIC Streptococcus pneumoniae UC 41 [1]: 0.12 microgram/ml | MIC Staphylococcus haemolyticus L 602 [2]: 0.12 microgram/ml | MIC Streptococcus faecalis ATCC 7080 [3]: 0.12 microgram/ml | MIC Pseudomonas aeruginosa ATCC 10145 [4]: 16 microgram/ml | MIC Staphylococcus epidermidis ATCC 12228 [5]: 0.06 microgram/ml | MIC Escherichia coli SKF 12140 [6]: 4 microgram/ml | MIC Proteus vulgaris X19H ATCC 881 [7]: 128 microgram/ml | MIC Streptococcus pyogenes C 203 [8]: 0.06 microgram/ml | MIC Staphylococcus aureus TOUR [9]: 0.06 microgram/ml
